# According to patent publication US10023558B2, “Compounds” (CHIESI FARMACEUTICI S.P.A., priority 2016, dated 2018):
# Target: T1, human neutrophil elastase (HNE) (Homo sapiens, UniProt P08246)
# T1 construct: purchased Sigma E8140
# T1 sequence (P08246 30-247 limits assumed): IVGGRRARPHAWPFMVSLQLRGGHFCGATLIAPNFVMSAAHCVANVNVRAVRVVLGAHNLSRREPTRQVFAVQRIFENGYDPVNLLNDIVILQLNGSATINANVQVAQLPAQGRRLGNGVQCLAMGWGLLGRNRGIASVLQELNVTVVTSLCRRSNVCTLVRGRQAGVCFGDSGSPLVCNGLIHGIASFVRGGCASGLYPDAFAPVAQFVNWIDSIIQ
# Test: HNE Enzyme Assay (fluorogenic peptide substrate MeOSuc-Ala-Ala-Pro-Val-AMC)
# Assay type: biochemical
# Conditions: human leukocyte elastase 0.00072 U/mL, substrate 100 μM, 25° C., 30 minutes, at least two separate experiments; read-out: HNE inhibition (IC50 values)
# Experimental: Compounds of this invention were tested for potency in a human neutrophil elastase (HNE) enzyme activity assay.
# Assays were performed in 96-well plates in a total assay volume of 100 μL. The final concentration of elastase enzyme (human leukocyte elastase, Sigma E8140) was 0.00072 U/mL. The peptide substrate (MeOSuc-Ala-Ala-Pro-Val-AMC, Calbiochem #324740) was used at a final concentration of 100 μM. The final concentration of DMSO was 1% in the assay buffer (0.05M Tris.HCl, 0.1M NaCl, 0.1M CaCl2, 0.0005% Brij-35, pH 7.5). The enzymatic reaction was started by addition of the enzyme and incubated at 25° C. for 30 minutes. After incubation, the reaction was stopped by addition of soybean trypsin inhibitor (Sigma T9003) at a final concentration of 50 μg/well. Fluorescence was measured using a Molecular Devices fluorescence plate reader using 380 nm excitation and 460 nm emission wavelengths.
# A concentration response to each compound was performed and the effect of compound in each experiment was expressed as a percentage inhibition of the control enzyme fluorescence. Dose response curves were plotted and compound potency (IC50) was determined. Compounds were tested in at least two separate experiments.
row,Compound,IC50
1,"Cc1c(-c2ccnn2-c2ccc(C#N)cc2)n(C(=O)N[C@@H]2C[C@H]3CC[C@@H](C2)[N+]3(C)C)c(=O)n1-c1cccc(C(F)(F)F)c1 [Example 39, (1R,3S,5S)-3-{[5-[2-(4-Cyano-phenyl)-2H-pyrazol-3-yl]-4-methyl-2-oxo-3-(3-trifluoromethyl-phenyl)-2,3-dihydro-imidazole-1-carbonyl]-amino}-8,8-dimethyl-8-azonia-bicyclo[3.2.1]octane benzene sulfonate]",< 1 nM
2,"Cc1c(-c2ccnn2-c2ccc(C#N)cc2)n(C(=O)N[C@H]2CC[C@H]([N+](C)(C)C)CC2)c(=O)n1-c1cccc(C(F)(F)F)c1 [Example 41, (Trans-4-{[5-[2-(4-cyano-phenyl)-2H-pyrazol-3-yl]-4-methyl-2-oxo-3-(3-trifluoromethyl-phenyl)-2,3-dihydro-imidazole-1-carbonyl]-amino}-cyclohexyl)-trimethyl-ammonium benzene sulfonate]",< 1 nM
3,"CC[n+]1ccc([C@H](C)NC(=O)n2c(-c3ccnn3-c3ccc(C#N)cc3)c(C)n(-c3cccc(C(F)(F)F)c3)c2=O)cc1 [Example 42, 4-((S)-1-{[5-[2-(4-Cyano-phenyl)-2H-pyrazol-3-yl]-4-methyl-2-oxo-3-(3-trifluoromethyl-phenyl)-2,3-dihydro-imidazole-1-carbonyl]-amino}-ethyl)-1-ethyl-pyridinium benzene sulfonate]",< 1 nM
4,"Cc1c(-c2ccnn2-c2ccc(C#N)cc2)n(C(=O)N[C@H]2CC[C@H]([N+](C)(C)Cc3ccccc3)CC2)c(=O)n1-c1cccc(C(F)(F)F)c1 [Example 43, Benzyl-(trans-4-{[5-[2-(4-cyano-phenyl)-2H-pyrazol-3-yl]-4-methyl-2-oxo-3-(3-trifluoromethyl-phenyl)-2,3-dihydro-imidazole-1-carbonyl]-amino}-cyclohexyl)-dimethyl-ammonium bromide]",< 1 nM
5,"CC[N+](C)(C)[C@H]1CC[C@H](NC(=O)n2c(-c3ccnn3-c3ccc(C#N)cc3)c(C)n(-c3cccc(C(F)(F)F)c3)c2=O)CC1 [Example 44, (Trans-4-{[5-[2-(4-cyano-phenyl)-2H-pyrazol-3-yl]-4-methyl-2-oxo-3-(3-trifluoromethyl-phenyl)-2,3-dihydro-imidazole-1-carbonyl]-amino}-cyclohexyl)-ethyl-dimethyl-ammonium benzene sulfonate]",< 1 nM
6,"Cc1c(-c2ccnn2-c2ccc(C#N)cc2)n(C(=O)N[C@@H](C)C(=O)N2CC[N+](C)(Cc3ccccc3)CC2)c(=O)n1-c1cccc(C(F)(F)F)c1 [Example 49, 1-Benzyl-4-((S)-2-{[5-[2-(4-cyano-phenyl)-2H-pyrazol-3-yl]-4-methyl-2-oxo-3-(3-trifluoromethyl-phenyl)-2,3-dihydro-imidazole-1-carbonyl]-amino}-propionyl)-1-methyl-piperazin-1-ium bromide]",< 1 nM
7,"Cc1c(-c2ccnn2-c2ccc(C#N)cc2)n(C(=O)N[C@@H](C)C(=O)N2CC[N+](C)(C)CC2)c(=O)n1-c1cccc(C(F)(F)F)c1 [Example 50, 4-((S)-2-{[5-[2-(4-Cyano-phenyl)-2H-pyrazol-3-yl]-4-methyl-2-oxo-3-(3-trifluoromethyl-phenyl)-2,3-dihydro-imidazole-1-carbonyl]-amino}-propionyl)-1,1-dimethyl-piperazin-1-ium benzene sulfonate]",< 1 nM
8,"Cc1c(-c2ccnn2-c2ccc(C#N)cc2)n(C(=O)N[C@H](C)c2cc[n+](C)cc2)c(=O)n1-c1cccc(C(F)(F)F)c1 [Example 52, 4-((R)-1-{[5-[2-(4-Cyano-phenyl)-2H-pyrazol-3-yl]-4-methyl-2-oxo-3-(3-trifluoromethyl-phenyl)-2,3-dihydro-imidazole-1-carbonyl]-amino}-ethyl)-1-methyl-pyridinium benzene sulfonate]",1 to 10 nM
9,"Cc1c(-c2ccnn2-c2ccc(C#N)cc2)n(C(=O)N[C@H]2CC[C@@H](C[N+](C)(C)C)CC2)c(=O)n1-c1cccc(C(F)(F)F)c1 [Example 53, (Cis-4-{[5-[2-(4-cyano-phenyl)-2H-pyrazol-3-yl]-4-methyl-2-oxo-3-(3-trifiuoromethyl-phenyl)-2,3-dihydro-imidazole-1-carbonyl]-amino}-cyclohexylmethyl)-trimethyl-ammonium benzene sulfonate]",1 to 10 nM
10,"Cc1c(-c2ccnn2-c2ccc(C#N)cc2)n(C(=O)N[C@H]2C[C@@H]3C[N+](C)(C)C[C@@H]3C2)c(=O)n1-c1cccc(C(F)(F)F)c1 [Example 56, (3aR,5S,6aS)-5-{[5-[2-(4-Cyano-phenyl)-2H-pyrazol-3-yl]-4-methyl-2-oxo-3-(3-trifluoromethyl-phenyl)-2,3-dihydro-imidazole-1-carbonyl]-amino}-2,2-dimethyl-octahydro-cyclopenta[c]pyrrolium benzene sulfonate]",< 1 nM

# The next lines start with the values.
row,IC50,Compound
1,< 1 nM,"CC[N+]1(CC)CCC(NC(=O)n2c(-c3ccnn3-c3ccc(C#N)cc3)c(C)n(-c3cccc(C(F)(F)F)c3)c2=O)CC1 [Example 40, 4-{[5-[2-(4-Cyano-phenyl)-2H-pyrazol-3-yl]-4-methyl-2-oxo-3-(3-trifluoromethyl-phenyl)-2,3-dihydro-imidazole-1-carbonyl]-amino}-1,1-diethyl-piperidinium benzene sulfonate]"
2,1 to 10 nM,"Cc1c(-c2ccnn2-c2ccc(C#N)cc2)n(C(=O)N[C@H]2CC[C@@H]([N+](C)(C)C)CC2)c(=O)n1-c1cccc(C(F)(F)F)c1 [Example 45, (Cis-4-{[5-[2-(4-cyano-phenyl)-2H-pyrazol-3-yl]-4-methyl-2-oxo-3-(3-trifluoromethyl-phenyl)-2,3-dihydro-imidazole-1-carbonyl]-amino}-cyclohexyl)-trimethyl-ammonium benzene sulfonate]"
3,1 to 10 nM,"Cc1c(-c2ccnn2-c2ccc(C#N)cc2)n(C(=O)N[C@H]2CC[C@@H]([N+](C)(C)Cc3ccccc3)CC2)c(=O)n1-c1cccc(C(F)(F)F)c1 [Example 46, Benzyl-(cis-4-{[5-[2-(4-cyano-phenyl)-2H-pyrazol-3-yl]-4-methyl-2-oxo-3-(3-trifluoromethyl-phenyl)-2,3-dihydro-imidazole-1-carbonyl]-amino}-cyclohexyl)-dimethyl-ammonium bromide]"
4,< 1 nM,"Cc1c(-c2ccnn2-c2ccc(C#N)cc2)n(C(=O)NC(C)(C)c2cc[n+](C)cc2)c(=O)n1-c1cccc(C(F)(F)F)c1 [Example 47, 4-(1-{[5-[2-(4-Cyano-phenyl)-2H-pyrazol-3-yl]-4-methyl-2-oxo-3-(3-trifluoromethyl-phenyl)-2,3-dihydro-imidazole-1-carbonyl]-amino}-1-methyl-ethyl)-1-methyl-pyridinium benzene sulfonate]"
5,1 to 10 nM,"CC[N+](C)(C)[C@H]1CC[C@@H](NC(=O)n2c(-c3ccnn3-c3ccc(C#N)cc3)c(C)n(-c3cccc(C(F)(F)F)c3)c2=O)CC1 [Example 48, (Cis-4-{[5-[2-(4-cyano-phenyl)-2H-pyrazol-3-yl]-4-methyl-2-oxo-3-(3-trifluoromethyl-phenyl)-2,3-dihydro-imidazole-1-carbonyl]-amino}-cyclohexyl)-ethyl-dimethyl-ammonium benzene sulfonate]"
6,< 1 nM,"Cc1c(-c2ccnn2-c2ccc(C#N)cc2)n(C(=O)NC2CC3(CC[N+](C)(C)CC3)C2)c(=O)n1-c1cccc(C(F)(F)F)c1 [Example 51, 2-{[5-[2-(4-Cyano-phenyl)-2H-pyrazol-3-yl]-4-methyl-2-oxo-3-(3-trifluoromethyl-phenyl)-2,3-dihydro-imidazole-1-carbonyl]-amino}-7,7-dimethyl-7-azonia-spiro[3.5]nonane benzene sulfonate]"
7,1 to 10 nM,"Cc1c(-c2ccnn2-c2ccc(C#N)cc2)n(C(=O)N[C@H]2CC[C@@H](C[N+](C)(C)Cc3ccccc3)CC2)c(=O)n1-c1cccc(C(F)(F)F)c1 [Example 54, Benzyl-(cis-4-{[5-[2-(4-cyano-phenyl)-2H-pyrazol-3-yl]-4-methyl-2-oxo-3-(3-trifiuoromethyl-phenyl)-2,3-dihydro-imidazole-1-carbonyl]-amino}-cyclohexylmethyl)-dimethyl-ammonium bromide]"
8,1 to 10 nM,"CC[N+](C)(C)C[C@H]1CC[C@@H](NC(=O)n2c(-c3ccnn3-c3ccc(C#N)cc3)c(C)n(-c3cccc(C(F)(F)F)c3)c2=O)CC1 [Example 55, (Cis-4-{[5-[2-(4-cyano-phenyl)-2H-pyrazol-3-yl]-4-methyl-2-oxo-3-(3-trifluoromethyl-phenyl)-2,3-dihydro-imidazole-1-carbonyl]-amino}-cyclohexylmethyl)-ethyl-dimethyl-ammonium benzene sulfonate]"
9,< 1 nM,"Cc1c(-c2ccnn2-c2ccc(C#N)cc2)n(C(=O)N[C@@H](C)C(=O)NC2CC[N+](C)(C)CC2)c(=O)n1-c1cccc(C(F)(F)F)c1 [Example 57, 4-((S)-2-{[5-[2-(4-Cyano-phenyl)-2H-pyrazol-3-yl]-4-methyl-2-oxo-3-(3-trifluoromethyl-phenyl)-2,3-dihydro-imidazole-1-carbonyl]-amino}-propionylamino)-1,1-dimethyl-piperidinium benzene sulfonate]"
